# Legend:
# [1] = biological target: T1, Furin (108-574-Tev-Flag-His) enzyme (Homo sapiens, UniProt P09958); assay: Furin enzyme assay; format: biochemical; details: for IC50: read-out: furin enzyme pIC50 (converted)
# T1 construct: Furin (108-574-Tev-Flag-His) enzyme was expressed and purified from CHO cells; TEV cleavage site (C); FLAG (C); His (C); made in house; host or cells: CHO cells
# Outline: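 CHO-expressed, purified furin construct at 40 pM in 100 mM HEPES pH7.5, 1 mM CaCl2, 0.005% Triton X-100. Eleven-point 1:3 series, 0.00017–10 μM final, incubated 2 h at room temperature and read on Envision. pXC50 from four-parameter fit.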
# [2] = biological target: T2, furin (endogenous protease) in U20S cells (Homo sapiens, UniProt P09958); assay: Furin cell-based assay (image-based, Golgi-targeted GFP with BMP10 furin/PCSK cleavage site); details: 24-hour incubation, read-out: furin golgi cell pXC50 (converted);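 note: Read-out is mean GFP fluorescence of Golgi puncta per cell by high-content imaging, retained when furin inhibited, over an eleven-point 0.00017–10 µM series, four-parameter fit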
# T2 construct: the endogenous protease cleaves GFP; endogenous in cells; host or cells: U2OS cells transduced with a BacMam reporter
# T2 sequence (P09958 108-794): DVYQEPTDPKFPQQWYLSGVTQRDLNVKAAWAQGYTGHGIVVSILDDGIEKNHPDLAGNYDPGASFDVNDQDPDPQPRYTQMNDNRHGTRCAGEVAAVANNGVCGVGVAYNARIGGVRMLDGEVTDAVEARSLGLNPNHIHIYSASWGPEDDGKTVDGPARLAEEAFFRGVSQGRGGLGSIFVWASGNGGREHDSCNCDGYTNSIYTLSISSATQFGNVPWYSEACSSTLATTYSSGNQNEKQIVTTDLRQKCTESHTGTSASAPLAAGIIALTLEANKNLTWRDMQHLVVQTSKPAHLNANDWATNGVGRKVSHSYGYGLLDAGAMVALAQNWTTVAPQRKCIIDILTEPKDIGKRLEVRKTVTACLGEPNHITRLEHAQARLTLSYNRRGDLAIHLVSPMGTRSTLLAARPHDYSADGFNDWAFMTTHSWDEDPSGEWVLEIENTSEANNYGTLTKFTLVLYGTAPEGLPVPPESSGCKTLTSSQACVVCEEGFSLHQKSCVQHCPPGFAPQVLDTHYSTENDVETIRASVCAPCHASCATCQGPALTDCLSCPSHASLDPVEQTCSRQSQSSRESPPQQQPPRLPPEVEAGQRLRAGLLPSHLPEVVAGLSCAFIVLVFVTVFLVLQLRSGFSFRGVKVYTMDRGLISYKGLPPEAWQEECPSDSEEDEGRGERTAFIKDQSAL
# T1 sequence (P09958 108-574): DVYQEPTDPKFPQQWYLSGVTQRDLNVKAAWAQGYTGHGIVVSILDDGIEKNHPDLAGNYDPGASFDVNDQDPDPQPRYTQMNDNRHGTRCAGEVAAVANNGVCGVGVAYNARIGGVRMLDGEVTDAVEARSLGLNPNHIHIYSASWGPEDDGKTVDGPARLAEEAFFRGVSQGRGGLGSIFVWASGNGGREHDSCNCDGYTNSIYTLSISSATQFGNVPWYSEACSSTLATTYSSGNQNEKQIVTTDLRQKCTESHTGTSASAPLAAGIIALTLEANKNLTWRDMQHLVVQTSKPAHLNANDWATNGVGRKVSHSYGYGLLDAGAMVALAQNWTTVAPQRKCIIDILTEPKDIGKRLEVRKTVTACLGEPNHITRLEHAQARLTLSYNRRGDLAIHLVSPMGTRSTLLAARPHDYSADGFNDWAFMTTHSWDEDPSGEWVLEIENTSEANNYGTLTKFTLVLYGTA
SMILES,furin enzyme pIC50 [1],EC50 [2] [nM],IC50 [1] [nM]
"CC(=O)NCC1CCN(Cc2cc(Oc3ccc(N4CCN(CCC(=O)O)CC4)nc3)cc(-c3cc(Cl)cc(Cl)c3)c2)CC1 [Example 258, 3-(4-(5-((5-((4-(acetamidomethyl)piperidin-1-yl)methyl)-3′,5′-dichloro-[1,1′-biphenyl]-3-yl)oxy)pyridin-2-yl)piperazin-1-yl)propanoic acid]",9.6,31.6,
"CNC(=O)NCC1CCN(Cc2cc(Oc3cnc(N4CCN(CCOC)CC4)nc3)nc(-c3cc(Cl)cc(Cl)c3)c2)CC1 [Example 262, 1-((1-((2-(3,5-dichlorophenyl)-6-((2-(4-(2-methoxyethyl)piperazin-1-yl)pyrimidin-5-yl)oxy)pyridin-4-yl)methyl)piperidin-4-yl)methyl)-3-methylurea]",9,0.316,
"CNC(=O)NCC1(O)CCN(Cc2cc(Oc3cnc(N4CCN(CCC(N)=O)CC4)nc3)nc(-c3cc(Cl)cc(Cl)c3)c2)CC1 [Example 265, 3-(4-(5-((6-(3,5-dichlorophenyl)-4-((4-hydroxy-4-((3-methylureido)methyl)piperidin-1-yl)methyl)pyridin-2-yl)oxy)pyrimidin-2-yl)piperazin-1-yl)propanamide]",9.4,7.94,
"CC(=O)NCC1CCN(Cc2cc(Oc3cnc(N4CCN(CCC(=O)O)CC4)c(F)c3)nc(-c3cc(Cl)cc(Cl)c3)c2)CC1 [Example 266, 3-(4-(5-((4-((4-(acetamidomethyl)piperidin-1-yl)methyl)-6-(3,5-dichlorophenyl)pyridin-2-yl)oxy)-3-fluoropyridin-2-yl)piperazin-1-yl)propanoic acid]",8.7,50.1,
"CCOC(=O)NCC1CCN(Cc2cc(Oc3cnc(N4CCN(CCC(=O)O)CC4)nc3)nc(-c3cc(Cl)cc(Cl)c3)c2)CC1 [Example 267, 3-(4-(5-((6-(3,5-dichlorophenyl)-4-((4-(((ethoxycarbonyl)amino)methyl)piperidin-1-yl)methyl)pyridin-2-yl)oxy)pyrimidin-2-yl)piperazin-1-yl)propanoic acid]",9.9,50.1,
"CNC(=O)NCC1CCN(Cc2cc(Oc3cnc(N4CCN(CCC(=O)O)CC4)c(F)c3)nc(-c3cc(Cl)cc(Cl)c3)c2)CC1 [Example 270, 3-(4-(5-((6-(3,5-dichlorophenyl)-4-((4-((3-methylureido)methyl)piperidin-1-yl)methyl)pyridin-2-yl)oxy)-3-fluoropyridin-2-yl)piperazin-1-yl)propanoic acid]",9.5,25.1,
"CS(=O)(=O)CCCN1CCN(c2ccc(Oc3cc(CN4CCC(CCC(=O)O)CC4)cc(-c4cc(Cl)cc(Cl)c4)n3)cn2)CC1 [Example 271, 3-(1-((2-(3,5-dichlorophenyl)-6-((6-(4-(3-(methylsulfonyl)propyl)piperazin-1-yl)pyridin-3-yl)oxy)pyridin-4-yl)methyl)piperidin-4-yl)propanoic acid]",8.9,25.1,
"CS(=O)(=O)CCCN1CCN(c2ncc(Oc3cc(CN4CCC(CCC(=O)O)CC4)cc(-c4cc(Cl)cc(Cl)c4)n3)cn2)CC1 [Example 272, 3-(1-((2-(3,5-dichlorophenyl)-6-((2-(4-(3-(methylsulfonyl)propyl)piperazin-1-yl)pyrimidin-5-yl)oxy)pyridin-4-yl)methyl)piperidin-4-yl)propanoic acid]",9.8,31.6,
"COC(=O)NCC1CCN(Cc2cc(Oc3cnc(N4CCNCC4)nc3)nc(-c3cc(F)cc(Cl)c3)c2)CC1 [Example 275, methyl ((1-((2-(3-chloro-5-fluorophenyl)-6-((2-(piperazin-1-yl)pyrimidin-5-yl)oxy)pyridin-4-yl)methyl)piperidin-4-yl)methyl)carbamate]",8.3,100,
"O=C(O)CC1CCN(Cc2cc(Oc3cnc(N4CCN(CCC5(O)CC5)CC4)nc3)nc(-c3cc(Cl)cc(Cl)c3)c2)CC1 [Example 278, 2-(1-((2-(3,5-dichlorophenyl)-6-((2-(4-(2-(1-hydroxycyclopropyl)ethyl)piperazin-1-yl)pyrimidin-5-yl)oxy)pyridin-4-yl)methyl)piperidin-4-yl)acetic acid]",9.4,10,
"CC(C)(CO)CN1CCN(c2ncc(Oc3cc(CN4CCC(CC(=O)O)CC4)cc(-c4cc(Cl)cc(Cl)c4)n3)cn2)CC1 [Example 280, 2-(1-((2-(3,5-dichlorophenyl)-6-((2-(4-(3-hydroxy-2,2-dimethylpropyl)piperazin-1-yl)pyrimidin-5-yl)oxy)pyridin-4-yl)methyl)piperidin-4-yl)acetic acid]",8.3,15.8,
"CC(=O)NCC1CCN(Cc2cc(Oc3cnc(N4CCN(C(C)CC(=O)O)CC4)nc3)nc(-c3cc(Cl)cc(Cl)c3)c2)CC1 (stereo not shown) [Example 282, 3-(4-(5-((4-((4-(acetamidomethyl)piperidin-1-yl)methyl)-6-(3,5-dichlorophenyl)pyridin-2-yl)oxy)pyrimidin-2-yl)piperazin-1-yl)butanoic acid]",,7.94,0.2

# Next, values leading:
furin enzyme pIC50 [1],EC50 [2] [nM],IC50 [1] [nM],SMILES
9.8,1.58,,"CC(=O)NCC1CCN(Cc2cc(Oc3cnc(N4CCN(CCCS(C)(=O)=O)CC4)nc3)nc(-c3cc(Cl)cc(Cl)c3)c2)CC1 [Example 259, N-((1-((2-(3,5-dichlorophenyl)-6-((2-(4-(3-(methylsulfonyl)propyl)piperazin-1-yl)pyrimidin-5-yl)oxy)pyridin-4-yl)methyl)piperidin-4-yl)methyl)acetamide]"
9.2,10,,"CNC(=O)NCC1CCN(Cc2cc(Oc3cnc(N4CCN(CCC(N)=O)CC4)nc3)nc(-c3cc(Cl)cc(Cl)c3)c2)CC1 [Example 261, 3-(4-(5-((6-(3,5-dichlorophenyl)-4-((4-((3-methylureido)methyl)piperidin-1-yl)methyl)pyridin-2-yl)oxy)pyrimidin-2-yl)piperazin-1-yl)propanamide]"
8.6,3.98,,"CS(=O)(=O)CCCN1CCN(c2ccc(Oc3cc(CN4CCC(CC(N)=O)CC4)cc(-c4cc(Cl)cc(Cl)c4)n3)cn2)CC1 [Example 264, 2-(1-((2-(3,5-dichlorophenyl)-6-((6-(4-(3-(methylsulfonyl)propyl)piperazin-1-yl)pyridin-3-yl)oxy)pyridin-4-yl)methyl)piperidin-4-yl)acetamide]"
9.1,63.1,,"CCNC(=O)CC1CCN(Cc2cc(Oc3cnc(N4CCN(CCC(=O)O)CC4)nc3)nc(-c3cc(Cl)cc(Cl)c3)c2)CC1 [Example 268, 3-(4-(5-((6-(3,5-dichlorophenyl)-4-((4-(2-(ethylamino)-2-oxoethyl)piperidin-1-yl)methyl)pyridin-2-yl)oxy)pyrimidin-2-yl)piperazin-1-yl)propanoic acid]"
8.5,25.1,,"CC(CC1CCN(Cc2cc(Oc3cnc(N4CCNCC4)nc3)nc(-c3cc(Cl)cc(Cl)c3)c2)CC1)C(=O)O (stereo not shown) [Example 269, 3-(1-((2-(3,5-dichlorophenyl)-6-((2-(piperazin-1-yl)pyrimidin-5-yl)oxy)pyridin-4-yl)methyl)piperidin-4-yl)-2-methylpropanoic acid]"
8.2,31.6,,"CC(=O)NCC1CCN(Cc2cc(Oc3cnc(N4CCN(CCC(N)=O)CC4)nc3)nc(-c3cc(F)c(F)c(Cl)c3)c2)CC1 [Example 273, 3-(4-(5-((4-((4-(acetamidomethyl)piperidin-1-yl)methyl)-6-(3-chloro-4,5-difluorophenyl)pyridin-2-yl)oxy)pyrimidin-2-yl)piperazin-1-yl)propanamide]"
9,6.31,,"CNC(=O)NCC1CCN(Cc2cc(Oc3cnc(N4CCN(CCCS(C)(=O)=O)CC4)nc3)nc(-c3cc(F)cc(Cl)c3)c2)CC1 [Example 274, 1-((1-((2-(3-chloro-5-fluorophenyl)-6-((2-(4-(3-(methylsulfonyl)propyl)piperazin-1-yl)pyrimidin-5-yl)oxy)pyridin-4-yl)methyl)piperidin-4-yl)methyl)-3-methylurea]"
9,50.1,,"CS(=O)(=O)CCC1CCN(Cc2cc(Oc3ccc(N4CCN(CCC(=O)O)CC4)nc3)nc(-c3cc(Cl)cc(Cl)c3)c2)CC1 [Example 276, 3-(4-(5-((6-(3,5-dichlorophenyl)-4-((4-(2-(methylsulfonyl)ethyl)piperidin-1-yl)methyl)pyridin-2-yl)oxy)pyridin-2-yl)piperazin-1-yl)propanoic acid]"
,50.1,0.0316,"NS(=O)(=O)CCC1CCN(Cc2cc(Oc3ccc(N4CCN(CCC(=O)O)CC4)nc3)nc(-c3cc(Cl)cc(Cl)c3)c2)CC1 [Example 277, 3-(4-(5-((6-(3,5-dichlorophenyl)-4-((4-(2-sulfamoylethyl)piperidin-1-yl)methyl)pyridin-2-yl)oxy)pyridin-2-yl)piperazin-1-yl)propanoic acid]"
8.6,20,,"CC(C)(O)CCN1CCN(c2ncc(Oc3cc(CN4CCC(CC(=O)O)CC4)cc(-c4cc(Cl)cc(Cl)c4)n3)cn2)CC1 [Example 279, 2-(1-((2-(3,5-dichlorophenyl)-6-((2-(4-(3-hydroxy-3-methylbutyl)piperazin-1-yl)pyrimidin-5-yl)oxy)pyridin-4-yl)methyl)piperidin-4-yl)acetic acid]"
9.5,39.8,,"CC(=O)NCC1CCN(Cc2cc(Oc3ccc(N4CCN(C(C)CC(=O)O)CC4)nc3)nc(-c3cc(Cl)cc(Cl)c3)c2)CC1 (stereo not shown) [Example 281, 3-(4-(5-((4-((4-(Acetamidomethyl)piperidin-1-yl)methyl)-6-(3,5-dichlorophenyl)pyridin-2-yl)oxy)pyridin-2-yl)piperazin-1-yl)butanoic acid]"
